The values that follow come from patent US9295624B2, “Amide derivative and whitening agent” (AJINOMOTO CO. INC., priority 2009, dated 2016).

The subject of series [1] is B16 melanom. Kind of series: Melanin production suppression test. It counts as cell-based. The settings on record: B16 melanoma cells, 3 days incubation, absorbance at 450 nm of medium, control = 100%, read-out: 50% melanin production-suppressive concentration IC50. The procedure: B16 melanom (purchased from Dainippon Sumitomo Pharma Co., Ltd.) was cultured in DMEM (Dulbecco's Modified Eagle Medium, high glucose, containing 10% serum). After confluent, the cells were trypsinized and seeded in a 96-well plate. On the following day, after adhesion of the cells to the plate, the medium was replaced with DMEM containing each evaluation sample (control (no sample addition), sample of each Production Example) at a given evaluation concentration (diluted from […] according to sample), and the cells were incubated for 3 days. The 96-well plate was shaken in a plateshaker for 5 minutes, the absorbance at 450 nm was measured by a microplatereader (Benchmark microplatereader, manufactured by BIORAD), and the amount of melanin in the medium in each well was compared. The absorbance at 3 days after addition of a given concentration of each sample was shown in relative percentage based on the measurement value (absorbance) of control (no sample addition) as 100%. As Comparative Example, a similar test was performed using kojic acid (KoA), 4-hexylresorcinol, CS (N-(p-coumaroyl)serotonin or N-[2-(5-hydroxy-1H-indol-3-yl)ethyl]-3-(4-hydroxyphenyl)-2-propenamide) and FS (N-feruloylcoumaroylserotonin or N-[2-(5-hydroxy-1H-indol-3-yl)ethyl]-3-(4-hydroxy-3-methoxyphenyl-2-propenamide). The results are shown in FIGS. 1 to 5. The concentration necessary for suppressing production of melanin in each sample by 50%, based on the amount of melanin in the control as 100%, was calculated as 50% melanin production-suppressive concentration IC50 (μM). The results are shown in Table 2.
Kojic acid (KoA) used was purchased from Sigma-Aldrich Japan K.K., 4-n-hexylresorcinol used was purchased from TOKYO CHEMICAL INDUSTRY CO., LTD., and CS and FS used were synthesized by Ajinomoto Co., Inc.

Series [2] relates to B16 melanom. Put plainly: Cytotoxicity test (neutral red assay). The settings on record: neutral red assay after melanin test, absorbance at 540 nm. It counts as cell-based. The procedure: After measurement of the absorbance in the melanin production suppression test of Experimental Example 1, the evaluation sample solution was removed from the plate, and each well was rinsed with DMEM (200 μl, high glucose, containing 10% serum). A medium containing NR (neutral red) was added to each well at 200 μl/well, and the plate was left standing for 2 hours at 37° C., 5% CO2 under a saturated vapor. The medium was removed, and a washing fixative solution (mixture of equal amounts of 2 wt % calcium chloride solution and 2 wt % formalin solution) was added at 200 μl/well. After 1 minute, the washing fixative solution was removed. An NR extract (acetic acid-ethanol, 200 μl/well) was added, and the mixture was shaken in a plateshaker for 15 minutes. NR uptake by viable cells was examined by measuring the absorbance of the NR extract at 540 nm by a microplatereader (Benchmark microplatereader, manufactured by BIORAD). The cytotoxicity of each sample was calculated as a relative percentage of the absorbance of NR extract of the cells added with a given concentration of each sample to the measurement value (absorbance) of a control NR extract (no sample) as 100%.

Read-outs that look alike come from different tables or passages of the source.

As to `O=C(/C=C/c1ccc(O)cc1)NCCc1c[nH]c2ccccc12` [Example 13], in the series on B16 melanom [1] (Mus musculus, 72 h), the IC50 worked out at 21.5 µM.
The same measure, in the same setting: the result for `CCCCCCc1ccc(O)cc1O` [4-hexylresorcinol, reference compound] reads 23.5 µM.
Still for that read-out and setting: the result for `O=C(NCCc1c[nH]c2ccc(O)cc12)c1cc(O)cc(O)c1` [Example 36] reads 22.4 µM; that for `COc1ccc(CCNC(=O)/C=C/c2ccc(O)cc2)cc1` [Example 24], 33.3 µM.
As to `O=C(NCCc1c[nH]c2ccc(O)cc12)c1cccc(O)c1O` [Example 32], the “cytotoxicity (NR uptake by viable cells)” value in the series on B16 melanom [2] is “showed cytotoxicity”.
For `O=C(C=Cc1ccc(O)cc1)NCCc1c[nH]c2ccc(O)cc12` [CS, N-[2-(5-hydroxy-1H-indol-3-yl)ethyl]-3-(4-hydroxyphenyl)-2-propenamide, reference compound], the IC50 with B16 melanom [1] (Mus musculus, 72 h) amounted to 28.5 µM.
The same measure, in the same setting: as for `O=c1cc(CO)occ1O` [kojic acid, reference compound], the figure is 315 µM; as for `O=C(/C=C/c1ccc(O)cc1O)NCCc1c[nH]c2ccccc12` [Example 30], 17.1 µM; as for `Cc1cc(/C=C/C(=O)NCCc2c[nH]c3ccc(O)cc23)ccc1O` [Example 17, N-[2-(5-hydroxy-1H-indol-3-yl)ethyl]-3-(3-methyl-4-hydroxyphenyl)-2-propenamide], 14.6 µM.
For the molecule `O=C(NCCc1c[nH]c2ccc(O)cc12)c1ccc(O)cc1O` [Example 33], the “cytotoxicity (NR uptake by viable cells)” value in the series with B16 melanom [2] is reported as “showed cytotoxicity”.
Regarding `O=C(NCCc1c[nH]c2ccc(O)cc12)c1ccc(O)c(O)c1` [Reference Example 2, reference compound], the IC50 in the series on B16 melanom [1] (Mus musculus, 72 h) was 1.9 µM.
As for `COc1cc(C=CC(=O)NCCc2c[nH]c3ccc(O)cc23)ccc1O` [FS, reference compound], the IC50 with B16 melanom [1] came to 42.4 µM.
As for `O=C(/C=C/c1ccc(O)cc1O)NCCc1c[nH]c2ccc(O)cc12` [Example 4, N-[2-(5-hydroxy-1H-indol-3-yl)ethyl]-3-(2,4-dihydroxyphenyl)-2-propenamide], the IC50 with B16 melanom [1] (Mus musculus, 72 h) turned out to be 10.7 µM.
